Experimental findings from ChEMBL document CHEMBL1201862, “PubChem BioAssay data set” (2004) are described below.

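A five-concentration, 48-hour dose response in 96-well plates underlies each endpoint, interpolated linearly between surrounding concentrations. GI50: concentration for 50% inhibition of growth.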 Calls of active or inactive are those of the source. No stated cut-off is given here; in the data, active = GI50 up to about 1.1 µM and inactive = higher.

Test systems include HCT-116; A498; A549; OVCAR-3; EKVX; BT-549; NCI-H522; HCC 2998; M14; Hs-578T; PC-3; NCI-H460; SW-620; KM12; HCT-15; HT-29; OVCAR-8; MDA-N; UACC-62; SF-295.
Holding throughout (assay): inhibition of tumour cell growth, NCI panel, 48 h

Turning to `Cc1c(CNc2ccc(Cl)c(C(=O)NC(CC(=O)O)C(=O)O)c2)ccc2nc(N)nc(N)c12` (stereo not given), the GI50 with HCT-116 was < 0.01 µM (active); in the test with A498, 1.52 µM (inactive); in the test on A549, 1.33 µM (inactive); with OVCAR-3, 6.46 µM (inactive); with EKVX, 8.15 µM (inactive); in the test with BT-549, 33.3 µM (inactive). Further, the GI50 in the test with NCI-H522 was 3.83 µM (inactive); with HCC 2998, 0.256 µM (active); in the test with M14 it was 0.0163 µM (active); in the test on Hs-578T, 506 µM (inactive); with PC-3, 178 µM (inactive); with NCI-H460 it was 0.0352 µM (active). The GI50 was < 0.0175 µM (active) with SW-620; 0.106 µM (active) in the test with KM12; 0.0265 µM in the test with HCT-15; < 0.0208 µM (active) in the test on HT-29; 0.0399 µM (active) with OVCAR-8; < 0.01 µM (active) in the test on MDA-N. The GI50 in the test on UACC-62 is 0.0501 µM (active); in the test with SF-295, 0.126 µM (active).

On to `C=CCCC(=O)CC(O)(C(F)(F)F)C(F)(F)F`, for which the GI50 in the test with HCT-116, with A498, in the test on A549, in the test with OVCAR-3, with EKVX and with BT-549 was > 100 µM (inactive) each time. Besides, the GI50 in the test on NCI-H522, in the test with HCC 2998, with M14, with Hs-578T, with PC-3 and in the test with NCI-H460 was > 100 µM (inactive) each time. Also, the GI50 in the test with SW-620 was > 100 µM (inactive); in the test with KM12 it was > 100 µM (inactive); in the test on HCT-15 it was greater than 100 µM; with HT-29 it was > 100 µM (inactive); in the test on OVCAR-8, > 100 µM (inactive); in the test on MDA-N, > 100 µM (inactive). Further, the GI50 with UACC-62 and in the test on SF-295 was > 100 µM (inactive) in each case.

Turning to `c1ccc(C2=Nn3c(CCCCCCCCc4nnc5n4N=C(c4ccccc4)CS5)nnc3SC2)cc1`, the GI50 was > 66.1 µM (inactive) in the test with HCT-116; 39.1 µM (inactive) with A498; > 100 µM (inactive) in the test on A549; > 100 µM (inactive) in the test on OVCAR-3; 76.2 µM (inactive) in the test on EKVX; > 57.7 µM (inactive) in the test on BT-549. For the same compound, the GI50 in the test with NCI-H522 was 40.2 µM (inactive); in the test with HCC 2998 it was > 100 µM (inactive); with M14 it was 37.6 µM (inactive); in the test on Hs-578T, 21.1 µM (inactive); in the test with PC-3, > 100 µM (inactive); in the test on NCI-H460 it was > 100 µM (inactive). For the same compound, the GI50 was > 100 µM (inactive) with SW-620; > 100 µM (inactive) in the test with KM12; greater than 100 µM in the test on HCT-15; 19.6 µM (inactive) in the test with HT-29; > 46.5 µM (inactive) in the test with OVCAR-8; > 100 µM (inactive) in the test with MDA-N. For the same compound, the GI50 with UACC-62 is 46.8 µM (inactive); in the test on SF-295, 20.1 µM (inactive).

For the compound `COc1cccc(CCn2c(N)c(-c3ccccc3)c3ccc([N+](=O)[O-])cc3c2=O)c1`, the GI50 in the test with HCT-116 was 3.3 µM (inactive); in the test with A498 it was 1.82 µM (inactive); with A549 it was 9.62 µM (inactive); with OVCAR-3, 2.58 µM (inactive); with EKVX it was 12.3 µM (inactive); with BT-549 it was 1.61 µM (inactive). Besides, the GI50 is 2.93 µM (inactive) in the test on NCI-H522; 11.1 µM (inactive) in the test with HCC 2998; 11.2 µM (inactive) in the test with M14; 1.85 µM (inactive) with Hs-578T; 9.53 µM (inactive) with PC-3; 13.6 µM (inactive) in the test with NCI-H460. The GI50 was 25.7 µM (inactive) with SW-620; 4.36 µM (inactive) with KM12; 7.08 µM with HCT-15; 10.6 µM (inactive) in the test on HT-29; 1.98 µM (inactive) in the test with OVCAR-8; 17.5 µM (inactive) in the test with MDA-N. Further, the GI50 is 11.9 µM (inactive) with UACC-62 and 3.78 µM (inactive) with SF-295.

With `C[C@@H]1OC(=O)C[C@H]2CC(=O)N(CCC3CN(C(=O)c4ccccc4)c4ccccc43)C[C@@H]21` (stereo not given in full), the GI50 in the test with HCT-116, in the test with A498, in the test with A549, with OVCAR-3, with EKVX and in the test on BT-549 was > 100 µM (inactive) each time. Besides, the GI50 in the test on NCI-H522, with HCC 2998, in the test with M14, with Hs-578T, with PC-3 and in the test with NCI-H460 was > 100 µM (inactive) each time. Also, the GI50 with SW-620 was > 100 µM (inactive); in the test on KM12, > 100 µM (inactive); in the test with HCT-15, greater than 100 µM; in the test with HT-29 it was > 100 µM (inactive); with OVCAR-8 it was > 100 µM (inactive); in the test on MDA-N it was > 100 µM (inactive). Besides, the GI50 in the test with UACC-62 and with SF-295 was > 100 µM (inactive) each time.

Take `N=c1ccn2c(n1)OC1C(OP(=O)(O)O)C(CO)OC12` (stereo not given): the GI50 in the test with HCT-116 was 2.06 µM (inactive); with A498, 10.8 µM (inactive); in the test with A549 it was 0.575 µM (active); in the test on OVCAR-3, > 71.3 µM (inactive); in the test on EKVX it was > 100 µM (inactive); in the test with BT-549, > 100 µM (inactive). Further, the GI50 in the test with NCI-H522 is > 80.4 µM (inactive); in the test on HCC 2998, 11 µM (inactive); in the test on M14, 1.02 µM (active); with Hs-578T, > 100 µM (inactive); in the test on PC-3, > 100 µM (inactive); with NCI-H460, 0.53 µM (active). Also, the GI50 in the test on SW-620 is > 47.2 µM (inactive); in the test on KM12 it was > 100 µM (inactive); with HCT-15, greater than 100 µM; in the test on HT-29, 10.5 µM (inactive); in the test on OVCAR-8, 5.45 µM (inactive); with MDA-N, > 83.9 µM (inactive). The GI50 with UACC-62 was 10.4 µM (inactive); with SF-295, 38.1 µM (inactive).

For the compound `COc1cccc2c1-c1ccccc1[C@H](Nc1ccccc1)[C@@]2(C)O`, the GI50 in the test with HCT-116 is 4.11 µM (inactive); with A498, 8.95 µM (inactive); with A549 it was 7.5 µM (inactive); in the test on OVCAR-3, 2.7 µM (inactive); in the test with EKVX it was 11 µM (inactive); in the test on BT-549, 8.41 µM (inactive). Besides, the GI50 in the test with NCI-H522 was 2.37 µM (inactive); in the test on HCC 2998, 7.26 µM (inactive); with M14 it was 3.86 µM (inactive); in the test with Hs-578T, 4.97 µM (inactive); with PC-3, 6.21 µM (inactive); in the test with NCI-H460 it was 3.91 µM (inactive). In addition, the GI50 is 4.35 µM (inactive) in the test with SW-620; 3.04 µM (inactive) in the test with KM12; 4.3 µM in the test on HCT-15; 3.78 µM (inactive) with HT-29; 10.4 µM (inactive) in the test on OVCAR-8; 1.71 µM (inactive) with MDA-N. Also, the GI50 in the test on UACC-62 was 9.12 µM (inactive); in the test on SF-295, 4.13 µM (inactive).

For `Cc1ccc(S(=O)(=O)N(CC(O)COc2ccccc2)c2ccccc2Cl)cc1` (stereo not given), the GI50 is 14.6 µM (inactive) with HCT-116; 17.7 µM (inactive) in the test on A498; 11.8 µM (inactive) in the test with A549; 19 µM (inactive) in the test on OVCAR-3; 13.6 µM (inactive) in the test with EKVX; 17.1 µM (inactive) in the test on BT-549. For the same compound, the GI50 in the test on NCI-H522 was 12.4 µM (inactive); in the test on HCC 2998, 19.5 µM (inactive); in the test on M14, 16.5 µM (inactive); in the test on Hs-578T it was 10.9 µM (inactive); with PC-3 it was 15.9 µM (inactive); with NCI-H460, 17 µM (inactive). The GI50 is 17.8 µM (inactive) with SW-620; 14.6 µM (inactive) in the test on KM12; 15.8 µM with HCT-15; 17.5 µM (inactive) with HT-29; 16.3 µM (inactive) with OVCAR-8; 16.3 µM (inactive) with MDA-N. For the same compound, the GI50 was 8.61 µM (inactive) in the test on UACC-62 and 24.3 µM (inactive) with SF-295.

On to `O=C1C=CC(=O)c2c(O)c(N(CCCl)CCCl)c(Cl)c(O)c21`, for which the GI50 in the test with HCT-116 was 4.26 µM (inactive); with A498, 6.15 µM (inactive); in the test with A549 it was > 9.71 µM (inactive); in the test on OVCAR-3 it was 4.74 µM (inactive); in the test with EKVX, > 8.91 µM (inactive); in the test with BT-549, 4.15 µM (inactive). Further, the GI50 in the test with NCI-H522 is 3.74 µM (inactive); in the test with HCC 2998 it was > 8.91 µM (inactive); in the test on M14, 4.37 µM (inactive); in the test with Hs-578T, 6.25 µM (inactive); with PC-3 it was 5.47 µM (inactive); with NCI-H460 it was 5.02 µM (inactive). For the same compound, the GI50 with SW-620 was 3.75 µM (inactive); in the test on KM12, 6.4 µM (inactive); in the test on HCT-15, 5.45 µM; in the test on HT-29, 5.38 µM (inactive); in the test with OVCAR-8, 4.51 µM (inactive); with MDA-N it was 4.28 µM (inactive). The GI50 with UACC-62 is > 6.07 µM (inactive); in the test with SF-295 it was > 10 µM (inactive).

In the case of `CC(C)OC(=O)c1cc(NC(=S)OC(C)C)ccc1Cl`, the GI50 in the test on HCT-116 is 20.8 µM (inactive); in the test with A498, 25.9 µM (inactive); in the test with A549 it was 25.2 µM (inactive); in the test on OVCAR-3, 25.6 µM (inactive); with EKVX, 7.8 µM (inactive); with BT-549 it was 18.2 µM (inactive). In addition, the GI50 in the test with NCI-H522 was 13.2 µM (inactive); with HCC 2998, > 41.6 µM (inactive); in the test on M14, 35.6 µM (inactive); in the test on Hs-578T, 17.1 µM (inactive); with PC-3, 23.7 µM (inactive); with NCI-H460 it was > 39 µM (inactive). Also, the GI50 in the test with SW-620 is 28.4 µM (inactive); in the test with KM12, 13.8 µM (inactive); in the test with HCT-15, 21.6 µM; in the test on HT-29, 16.5 µM (inactive); in the test on OVCAR-8, 26.4 µM (inactive); in the test with MDA-N, 23.1 µM (inactive). Moreover, the GI50 with UACC-62 is 16.1 µM (inactive); in the test on SF-295 it was 18.5 µM (inactive).
